# Assay results from patent US8889874B2, “Imidazolone-chalcone derivatives as potential anticancer agent and process for the preparation thereof” (Council of Scientific and Industrial Research, priority 2010, dated 2014).
# Read-outs that look alike come from different tables or passages of the source.
# Columns and labels:
# Experiment in all cases: NCI anticancer screen, SRB assay, 48 h
# Assay type in all cases: cell-based, human
# [1] = system: OVCAR-8 (ovarian); settings: Homo sapiens
# Summary of the method: (§1)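 Sulforhodamine B protein assay read cell growth after 48 h of continuous compound exposure. Dose-response curves per cell line used at least five 10-fold-diluted concentrations, within a panel of fifty-three human lines from nine tumour types.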
# [2] = system: NCI/ADR-RES (ovarian); settings: Homo sapiens, NCI/ADR-RES
# Summary of the method: as §1
# [3] = system: NCI-H322M (non-small cell lung); settings: Homo sapiens
# Summary of the method: as §1
# [4] = system: U251 (CNS); settings: Homo sapiens
# Summary of the method: as §1
# [5] = system: CAKI-1 (renal); settings: Homo sapiens
# Summary of the method: as §1
# [6] = system: SNB-19 (CNS); settings: Homo sapiens
# Summary of the method: as §1
# [7] = system: UO-31 (renal); settings: Homo sapiens
# Summary of the method: as §1
# [8] = system: SW-620 (colon); settings: Homo sapiens
# Summary of the method: as §1
# [9] = system: NCI-H522 (non-small cell lung); settings: Homo sapiens
# Summary of the method: as §1
# [10] = system: UACC-62 (melanoma); settings: Homo sapiens
# Summary of the method: as §1
# [11] = system: UACC-257 (melanoma); settings: Homo sapiens
# Summary of the method: as §1
# [12] = system: MCF7 (breast); settings: Homo sapiens
# Summary of the method: as §1
# [13] = system: MDA-MB-435 (melanoma); settings: Homo sapiens
# Summary of the method: as §1
# [14] = system: SK-MEL-5 (melanoma); settings: Homo sapiens
# Summary of the method: as §1
# [15] = system: HOP-62 (non-small cell lung); settings: Homo sapiens
# Summary of the method: as §1
# [16] = system: SF-268 (CNS); settings: Homo sapiens
# Summary of the method: as §1
# [17] = system: K-562 (leukemia cell line); settings: Homo sapiens
# Summary of the method: as §1
# [18] = system: OVCAR-5 (ovarian); settings: Homo sapiens
# Summary of the method: as §1
# [19] = system: HCT-116 (colon); settings: Homo sapiens
# Summary of the method: as §1
# [20] = system: TK-10 (renal); settings: Homo sapiens
# Summary of the method: as §1
# [21] = system: SK-OV-3 (ovarian); settings: Homo sapiens
# Summary of the method: as §1
# [22] = system: EKVX (non-small cell lung); settings: Homo sapiens
# Summary of the method: as §1
# [23] = system: RPMI-8226 (leukemia cell line); settings: Homo sapiens
# Summary of the method: as §1
# [24] = system: OVCAR-4 (ovarian); settings: Homo sapiens
# Summary of the method: as §1
# [25] = system: MALME-3M (melanoma); settings: Homo sapiens
# Summary of the method: as §1
# [26] = system: RXF 393 (renal); settings: Homo sapiens
# Summary of the method: as §1
# [27] = system: NCI-H226 (non-small cell lung); settings: Homo sapiens
# Summary of the method: as §1
# [28] = system: 786-0 (renal); settings: Homo sapiens
# Summary of the method: as §1
# [29] = system: HCT-15 (colon); settings: Homo sapiens
# Summary of the method: as §1
# [30] = 48 h exposure, SRB, read-out: GI50
# [31] = read-out: pGI50 (-log of molar concentration causing 50% inhibition of net cell growth) (converted)
# [32] = NCl/ADR-RES, 48 h exposure, SRB, read-out: GI50
# [33] = U-251, 48 h exposure, SRB, read-out: GI50
# [34] = U-251, read-out: pGI50 (-log of molar concentration causing 50% inhibition of net cell growth) (converted)
# [35] = K562, 48 h exposure, SRB, read-out: GI50
# [36] = K562, read-out: pGI50 (-log of molar concentration causing 50% inhibition of net cell growth) (converted)
# [37] = Malme-3M, read-out: pGI50 (-log of molar concentration causing 50% inhibition of net cell growth) (converted)
# [38] = MALME-3M, 48 h exposure, SRB, read-out: GI50
# [39] = RXF 393, 48 h exposure, SRB, read-out: GI50
# [40] = RXF-393, read-out: pGI50 (-log of molar concentration causing 50% inhibition of net cell growth) (converted)
compound,measurement,setting,value
"COc1cc(/C=C/C(=O)c2cccc(-n3cc(-c4cc(OC)c(OC)c(OC)c4)[nH]c3=O)c2)cc(OC)c1OC [5d, 4-(3,4,5-trimethoxyphenyl)-1-3-[(E)-3-(3,4,5-trimethoxyphenyl)-2-propenoyl]phenyl-2,3-dihydro-1H-2-imidazolone]",GI50,[1]; [30],2.32 µM
same,GI50,[1]; [31],2.34 µM
same,GI50,[2]; [32],2.1 µM
same,GI50,[2]; [31],2.09 µM
same,GI50,[3]; [30],3.61 µM
same,GI50,[3]; [31],3.63 µM
same,GI50,[4]; [33],1.23 µM
same,GI50,[4]; [34],1.23 µM
same,GI50,[5]; [30],2.89 µM
same,GI50,[5]; [31],2.88 µM
same,GI50,[6]; [30],4.07 µM
same,GI50,[6]; [31],4.07 µM
same,GI50,[7]; [30],0.96 µM
same,GI50,[7]; [31],0.955 µM
same,GI50,[8]; [30],1.03 µM
same,GI50,[8]; [31],1.02 µM
same,GI50,[9]; [30],1.05 µM
same,GI50,[9]; [31],1.05 µM
same,GI50,[10]; [30],1.87 µM
same,GI50,[10]; [31],1.86 µM
same,GI50,[11]; [30],2.22 µM
same,GI50,[11]; [31],2.24 µM
same,GI50,[12]; [30],0.47 µM
same,GI50,[12]; [31],0.468 µM
same,GI50,[13]; [30],2.11 µM
same,GI50,[13]; [31],2.09 µM
same,GI50,[14]; [30],2.76 µM
same,GI50,[14]; [31],2.75 µM
same,GI50,[15]; [30],3.08 µM
same,GI50,[15]; [31],3.09 µM
same,GI50,[16]; [30],2.2 µM
same,GI50,[16]; [31],2.19 µM
same,GI50,[17]; [35],0.59 µM
same,GI50,[17]; [36],0.589 µM
same,GI50,[18]; [30],4.38 µM
same,GI50,[18]; [31],4.37 µM
same,GI50,[19]; [30],0.74 µM
same,GI50,[19]; [31],0.741 µM
same,GI50,[20]; [30],3 µM
same,GI50,[20]; [31],3.02 µM
same,GI50,[21]; [30],5.12 µM
same,GI50,[21]; [31],5.13 µM
same,GI50,[22]; [30],9.47 µM
same,GI50,[22]; [31],9.55 µM
same,GI50,[23]; [30],0.23 µM
same,GI50,[23]; [31],0.229 µM
same,GI50,[24]; [30],3.77 µM
same,GI50,[24]; [31],3.8 µM
same,GI50,[25]; [37],1.82 µM
same,GI50,[25]; [38],1.8 µM
same,GI50,[26]; [39],1.62 µM
same,GI50,[26]; [40],1.62 µM
same,GI50,[27]; [30],14.4 µM
same,GI50,[27]; [31],14.5 µM
same,GI50,[28]; [30],1.59 µM
same,GI50,[28]; [31],1.58 µM
same,GI50,[29]; [30],1.89 µM
same,GI50,[29]; [31],1.91 µM
"O=C(/C=C/c1cccc(O)c1)c1cccc(-n2cc(-c3ccc4ccccc4c3)[nH]c2=O)c1 [12b, 1-3-[(E)-3-(3-hydroxyphenyl)-2-propenoyl]phenyl-4-(2-naphthyl)-2,3-dihydro-1H-2-imidazolone]",GI50,[1]; [30],2.33 µM
same,GI50,[1]; [31],2.34 µM
same,GI50,[2]; [32],1.55 µM
same,GI50,[2]; [31],1.55 µM
same,GI50,[3]; [30],1.66 µM
same,GI50,[3]; [31],1.66 µM
same,GI50,[4]; [33],1.09 µM
same,GI50,[4]; [34],1.1 µM
same,GI50,[5]; [30],1.45 µM
same,GI50,[5]; [31],1.45 µM
same,GI50,[6]; [30],1.32 µM
same,GI50,[6]; [31],1.32 µM
same,GI50,[7]; [30],1.26 µM
same,GI50,[7]; [31],1.26 µM
same,GI50,[8]; [30],0.22 µM
same,GI50,[8]; [31],0.219 µM
same,GI50,[9]; [30],1.29 µM
same,GI50,[9]; [31],1.29 µM
same,GI50,[10]; [30],1.8 µM
same,GI50,[10]; [31],1.82 µM
same,GI50,[11]; [30],4.13 µM
same,GI50,[11]; [31],4.17 µM
same,GI50,[12]; [30],0.47 µM
same,GI50,[12]; [31],0.468 µM
same,GI50,[13]; [30],1.71 µM
same,GI50,[13]; [31],1.7 µM
same,GI50,[14]; [30],1.16 µM
same,GI50,[14]; [31],1.15 µM
same,GI50,[15]; [30],2.26 µM
same,GI50,[15]; [31],2.24 µM
same,GI50,[16]; [30],1.73 µM
same,GI50,[16]; [31],1.74 µM
same,GI50,[17]; [35],1.43 µM
same,GI50,[17]; [36],1.45 µM
same,GI50,[18]; [30],1.89 µM
same,GI50,[18]; [31],1.91 µM
same,GI50,[19]; [30],0.4 µM
same,GI50,[19]; [31],0.398 µM
same,GI50,[20]; [30],3.45 µM
same,GI50,[20]; [31],3.47 µM
same,GI50,[21]; [30],2.15 µM
same,GI50,[21]; [31],2.14 µM
same,GI50,[22]; [30],2.64 µM
same,GI50,[22]; [31],2.63 µM
same,GI50,[23]; [30],1.67 µM
same,GI50,[23]; [31],1.66 µM
same,GI50,[24]; [30],1.68 µM
same,GI50,[24]; [31],1.7 µM
same,GI50,[25]; [37],2.09 µM
same,GI50,[25]; [38],2.08 µM
same,GI50,[26]; [39],1.41 µM
same,GI50,[26]; [40],1.41 µM
same,GI50,[27]; [30],2.43 µM
same,GI50,[27]; [31],2.45 µM
same,GI50,[28]; [30],1.74 µM
same,GI50,[28]; [31],1.74 µM
same,GI50,[29]; [30],1.56 µM
same,GI50,[29]; [31],1.55 µM
